Measured values from US10682397B2, “Methods of treating fragile X syndrome and related disorders” (Massachusetts Institute of Technology, priority 2015, dated 2020).
Entries after “also recorded” stand apart in the source; their conditions may differ.

Legend:
[1] = system: hippocampal slices; experiment: Metabolic labeling of new protein synthesis (35S-Met/Cys incorporation) in hippocampal slices; type: cell-based, mice; settings: CDPPB 10 μM, 30 min
Procedure: Metabolic labeling of new protein synthesis was performed as previously described (Osterweil et al., J. Neurosci. 46, 15616-27 (2010)). Male P28-P32 littermate mice were anesthetized with isoflurane and the hippocampus was rapidly dissected into ice-cold aCSF (in mM: 124 NaCl, 3 KCl, 1.25 NaH2PO4, 26 NaHCO3, 10 dextrose, 1 MgCl2, 2 CaCl2, saturated with 95% O2 and 5% CO2). Hippocampal slices (500 μm) were prepared using a Stoelting Tissue Slicer and transferred into 32.5° C. aCSF (saturated with 95% O2 and 5% CO2) within 5 mM. Slices were incubated in aCSF undisturbed for 3.5-4 h to allow for recovery of basal protein synthesis. Actinomycin D (25 μM) and vehicle or CDPPB (10 μM) was then added to the recovery chamber for 30 mM to inhibit transcription and stimulate mGlu receptors, respectively after which slices were transferred to fresh aCSF containing ˜10 mCi/ml [^35S] Met/Cys (Perkin Elmer) for an additional 30 mM Slices were then homogenized, and labeled proteins isolated by TCA precipitation. Samples were read with a scintillation counter and subjected to a protein concentration assay (Bio-Rad). Data was analyzed as counts per minute per microgram of protein, normalized to the [^35S] Met/Cys aCSF used for incubation and the average incorporation of all samples analyzed and then normalized to percent wild-type for each experiment. Statistical significance was determined using unpaired t-tests.
To determine the role of β-arrestin2 in mGlu5-mediated protein synthesis, hippocampal slices from male Arrb2^+/− and wild-type (WT) littermates were stimulated with a selective […] positive modulator of mGlu5, 3-Cyano-N-(1,3-diphenyl-1H-pyrazol-5-yl) benzamide (CDPPB, 10 μM, 30 minutes), and the incorporation of ^35S-methionine/cysteine into new protein was measured. mGlu5 activation caused a parallel increase in protein synthesis (FIG. 1A) and ERK1/2 phosphorylation (FIG. 1B) in WT slices, which were both absent in slices from Arrb2^+/− mice. […]

[2] = system: ribosomal protein S6; experiment: Immunoblotting of ribosomal protein S6 phosphorylation in hippocampal slices; type: cell-based, mice; settings: 10 μM CDPPB
Procedure: (§1) Hippocampal slices were prepared and recovered as described in metabolic labeling experiments. Sets of slices were stimulated with CDPPB (10 μM) for 30 minutes and then flash frozen in liquid nitrogen immediately after stimulation, prior to processing. Yoked unstimulated slices were also processed to assess basal signaling levels Immunoblotting was performed according to established methods using primary antibodies to p-ERK1/2 (Thr202/Tyr204) (Cell Signaling Technology), ERK1/2 (Cell Signaling Technology), p-Akt (Ser473) (Cell Signaling Technology), Akt (Cell Signaling Technology), […] (Cell Signaling Technology) and S6 (Cell Signaling Technology). Protein levels were measured by densitometry (Quantity One), and quantified as the densitometric signal of phospho-protein divided by the total protein signal in the same lane.

[3] = system: AKT; experiment: Immunoblotting of AKT phosphorylation in hippocampal slices; type: cell-based, mice; settings: 10 μM CDPPB
Procedure: as §1

[4] = system: ERK1/2; experiment: Immunoblotting of ERK1/2 phosphorylation in hippocampal slices; type: cell-based, mice; settings: CDPPB 10 μM, 30 min
Procedure: as §1

[5] = system: hippocampal neurons; experiment: Fluorescence-based calcium imaging in brain slices (Fluo-4 AM); type: cell-based, mice; settings: DHPG 25 μM
Procedure: Hippocampal slices were prepared as described for electrophysiology experiments and recovered in aCSF for 2 hours at 32° C. Slices were then moved to a small recovery chamber and incubated in oxygenated aCSF containing 20 μM fluo-4-acetoxymethyl ester (fluo-4 AM; ThermoFisher) and 0.1% Pluronic F-127 (ThermoFisher) for 1 hour in the dark. After 1 hour, slices were then washed with oxygenated aCSF containing 1 μM tetrodotoxin (Abcam) and 50 μM D-AP5 (Tocris) for 20 minutes in a recording chamber. A low-powered (4×) objective was used to identify the brain region of interest. CA1 pyramidal neurons were visualized using a 40× water immersion objective and a Nikon Eclipse E600FN microscope.
Changes in Ca^2+ fluorescence were monitored in the presence of 1 μM tetrodotoxin and 50 μM D-AP5 using a Hamamatsu ORCA-100 camera, HClmage software (Hamamatsu), and a mercury arc-lamp and power supply (Nikon). After a 10 second baseline, 25 μM (S)-3,5-DHPG was bath applied. […] Data were analyzed using Image J software. Increases in Ca^2+ mobilization in hippocampal neurons were reported as changes in relative fluorescence divided by the baseline fluorescence (ΔF/F).
To assay the integrity of Gq signaling, calcium mobilization in hippocampal slices from WT and Arrb2^+/− animals was measured using the cell-permeable calcium fluorescent dye Fluo4-AM. […]

[6] = system: mice; experiment: MK801-induced hyperlocomotion in the open field; type: in vivo; settings: for MK801-induced hyperlocomotion: MTEP 10 mg/kg i.p. pre-treatment, MK801 0.3 mg/kg
Procedure: To determine the effects of genotype on MK801-induced hyperlocomotion, mice were habituated in the open field (40 cm×40 cm×40 cm box) for 60 min, followed by the administration of vehicle or MK801 and locomotor activity was recorded for another 60 mM. To determine the effects of MTEP by genotype on MK801-induced hyperlocomotion, mice were habituated in the open field for 30 min, followed by the intraperitoneal (i.p.) administration of MTEP (10 mg/kg at a dosing volume of 10 ml/kg). After an additional 30 mM, MK801 (0.3 mg/kg at a dosing volume of 10 ml/kg) was administered i.p. and locomotor activity was recorded for another 60 mM. The time course of drug-induced changes in ambulation was expressed as cm traveled/5 mM over the 120-min session. Sessions were recorded using Plexon's CINEPLEX® Studio and analyzed using Plexon's CINEPLEX® Editor and code written in MATLAB. MK801-induced locomotor activity was scored and analyzed using the average of the final 5 minutes (minute 115-120) per cohort.

[7] = system: hippocampal slices; experiment: mGlu-LTD (DHPG-induced) field recordings in hippocampal slices; type: cell-based, mice
Procedure: Slices were prepared as described previously (Dolen et al., Neuron 6, 955-56 (2007)). Acute hippocampal slices (350 μm) were prepared from P28-35 animals in ice-cold dissection buffer containing (in mM): NaCl 87, Sucrose 75, KCl2.5, NaH2PO4 1.25, NaHCO3 25, CaCl2 0.5, MgSO4 7, Ascorbic acid 1.3, and D-glucose 10 (saturated with 95% O2/5% CO2). Immediately following slicing the CA3 region was removed. Slices were recovered in artificial cerebrospinal fluid (aCSF) containing (in mM): NaCl 124, KCl5, NaH2PO4 1.23, NaHCO3 26, CaCl2 2, MgCl2 1, and D-glucose 10 (saturated with 95% O2/5% CO2) at 32.5° C. for ≥3 hours prior to recording.
Field recordings were performed in a submersion chamber, perfused with aCSF (2-3 ml/min) at 30° C. Field EPSPs (fEPSPs) were recorded in CA1 stratum radiatum with extracellular glass electrodes (1-2 MΩ) filled with aCSF. Baseline responses were evoked by stimulation of the Schaffer collaterals at 0.033 Hz with a 2-contact cluster electrode (FHC) using a 0.2 ms stimulus yielding 40-60% of the maximal response. fEPSP recordings were filtered at 0.1 Hz-1 kHz, digitized at 10 kHz, and analyzed using pClamp9 (Axon Instruments). […]
Paired pulse facilitation was induced by applying two pulses at different interstimulus intervals. Facilitation was measured by the ratio of the fEPSP slope of stimulus 2 to stimulus 1. […]

SMILES: N#Cc1cccc(C(=O)Nc2cc(-c3ccccc3)nn2-c2ccccc2)c1 [CDPPB, 3-Cyano-N-(1,3-diphenyl-1H-pyrazol-5-yl) benzamide]
- Protein synthesis compared with vehicle ([1]; Arrb1+/− slices): similarly elevated
- Protein synthesis compared with vehicle ([1]; Arrb2+/− slices): no effect
- Protein synthesis compared with vehicle ([1]; WT slices): similarly elevated
- S6 phosphorylation compared with vehicle ([2]; WT and Arrb1+/− slices): Neither WT nor Arrb1^+/− slices stimulated with CDPPB show elevated S6 phosphorylation
- S6 phosphorylation compared with vehicle ([2]; WT and Arrb2+/− slices): Neither WT nor Arrb2^+/− slices stimulated with CDPPB show elevated S6 phosphorylation
- AKT phosphorylation compared with vehicle ([3]; WT and Arrb1+/− slices): Neither WT nor Arrb1^+/− slices stimulated with CDPPB show elevated AKT phosphorylation
- AKT phosphorylation compared with vehicle ([3]; WT and Arrb2+/− slices): Neither WT nor Arrb2^+/− slices stimulated with CDPPB show elevated AKT phosphorylation
- ERK1/2 phosphorylation compared with vehicle ([4]; Arrb1+/− slices): elevated
- ERK1/2 phosphorylation compared with vehicle ([4]; Arrb2+/− slices): no change
- ERK1/2 phosphorylation compared with vehicle ([4]; WT slices): elevated

SMILES: N[C@H](C(=O)O)c1cc(O)cc(O)c1 [DHPG, (S)-3,5-Dihydroxyphenylglycine]
- Ca2+-mediated fluorescence ([5]; 1 min, WT and Arrb2+/− slices (not significantly different)): rapid increase

SMILES: C[C@]12N[C@H](Cc3ccccc31)c1ccccc12 [MK801]
- Locomotor activity compared to vehicle ([6]; MK801 0.3 mg/kg i.p., 60 minutes post-treatment, WT and Arrb2+/− mice (comparable)): hyperlocomotion

SMILES: Cc1nc(C#Cc2cccnc2)cs1 [MTEP, 3-[(2-Methyl-1,3-thiazol-4-yl)ethynyl]-pyridine]
- MK801-induced hyperlocomotion ([6]; Arrb2+/− mice): continues to exacerbate; also recorded: potentiates
- MK801-induced hyperlocomotion ([6]; WT mice): significantly potentiates

SMILES: COc1ccc2c(c1)CC[C@@H]1[C@@H]2CC[C@]2(C)[C@@H](NCCCCCCN3C(=O)C=CC3=O)CC[C@@H]12 [U73122]
- DHPG-induced changes in calcium fluorescence ([5]; pretreatment with 10 μM U73122, data not shown): completely blocked

SMILES: C[C@@H]1C[C@@H]([C@H](O)CC2CC(=O)NC(=O)C2)C(=O)[C@@H](C)C1 [cycloheximide]
- DHPG-LTD (25 μM, 5 min) magnitude ([7]; Arrb2+/− slices, cycloheximide 60 μM, listed as CHX): unaffected; also recorded: no effect
- DHPG-LTD (25 μM, 5 min) magnitude ([7]; WT slices, cycloheximide 60 μM pretreatment): significantly diminished; also recorded: significantly attenuated
